Values joined by “and” are separate entries in the source; they are usually repeats but may differ in a detail not shown here. Equal values may be shown once.
Columns and labels:
Format in all cases: physicochemical
[1] = Separation of Ho/Er mixture by repeated precipitation using L1 (Example 11); conditions: for Precipitate concentration [mM] Ho: dissolved to 200 μL
Method: Stock solutions were pipetted into round-bottom 2 mL Eppendorf tubes as follows: • 1. 10 μL 100 mM aqueous solution of HoCl3 • 2. 10 μL 100 mM aqueous solution of ErCl3 • 3. 20 μL 100 mM aqueous solution of compound L1. • 4. 60 μL 2 M MOPS buffer pH=7. • 5. 140 μL water.
Nine identical reaction mixtures were prepared and split into three groups: A, B, C. Each tube was equipped with one PTFE-coated magnetic stir bar and sealed, and the mixture was stirred on a magnetic stirrer for 24 hours at room temperature. The tubes were then centrifuged and the supernatants were carefully pipetted out and transferred to a new set of tubes. Precipitates from group A were dissolved by addition of 200 μL 0.1 M HCl. The concentrations of Ho and Er in the supernatants and in the re-dissolved precipitates from group A were determined by ICP-OES. Precipitates from groups B and C were further processed as follows: the precipitates were dissolved by addition of 100 μL 0.1 M HCl, and the pH of the solutions were then raised from 1 to 7 by addition of an equimolar amount of 0.2 M NaOH. The total volume was adjusted to 200 μL by addition of water. The prepared mixtures were subjected to a second round of precipitation and were stirred on a magnetic stirrer for 24 hours at room temperature. The tubes were again centrifuged and the supernatants were carefully pipetted out and transferred to a new set of tubes. Samples from group B were treated identically to the samples from group A previously, and the Ho and Er content in the supernatants and precipitates were determined by ICP-OES. Precipitates from group C were subjected to a third cycle of precipitation followed by Ho and Er content determination analogously to the procedures described above. The resulting absolute concentrations of both metals in the supernatants and precipitates, as well as calculated values of the separation factor Er/Ho according to the formula (concentration of Er in supernatant/concentration of Er in precipitate)/(concentration of Ho in supernatant/concentration of Ho in precipitate), are summarized in Table 5.

[2] = Separation of Tb/Dy mixture by repeated precipitation using L5 and α-HIBA (Example 20); conditions: for Precipitate concentration [mM] Dy / precipitate concentration [mm] Tb: dissolved to 200 μL
Method: Analogous to Example 19, three reaction mixtures were prepared with the following changes: the rare-earth elements were Tb and Dy, and 0.5 molar equivalents (5 mM reaction concentration) of α-HIBA were used. Otherwise, the experiment was run analogously to Example 19.
The resulting absolute concentrations of both metals in the supernatants and precipitates, as well as calculated values of the separation factor Dy/Tb according to the formula from Example 11), are summarized in Table 14. […] The average separation factor was 2.32.

[3] = Separation of Nd/Pr/Tb/Dy mixture by precipitation using L5 (Example 21); conditions: for precipitate after 20 hrs: dissolved to 500 μL; for precipitate after 20 hrs composition / solution after 20 hrs composition: percent molar
Method: Stock solutions were pipetted into 4 mL glass vials to prepare reaction mixtures with concentrations as follows: • 1. 38.5 mM (1.1 eq) chelator L5 • 2. 35 mM (1 eq) total LnCl3 content (from a stock solution containing a mixture of Ln=Nd, Pr, Tb, and Dy, in a ratio of 3.3:1:1:1, Nd:Pr:Tb:Dy) • 3. 1750 mM (50 eq) MOPS pH=7
The total reaction volume was 3.2 mL. A PTFE-coated stir bar was added to this vial, and the vial was capped and stirred with the temperature maintained at 40° C. by use of an aluminium heating block on a magnetic stirrer. After 20 hours, a 500 μL aliquot of the reaction mixture was taken from the vial. This was centrifuged in a 2 mL plastic Eppendorf centrifuge vial, and the supernatant was carefully pipetted from this and transferred to a new set of tubes. The precipitate was dissolved by addition of 500 μL 1 M HCl, and the absolute concentration of Nd, Pr, Tb, and Dy in both the supernatants and precipitates was determined by ICP-OES.
The percent molar composition of each phase is also provided, showing the minimal selectivity in precipitation under these conditions.

[4] = Removal of additive from remaining solution after precipitation by ultrafiltration (Example 25); conditions: Ln chelates of L5
[5] = group A, 1st precipitation, mean

With `O=C(O)CN1CCN(CC(=O)O)CCN(Cc2ccccc2)CCN(CC(=O)O)CC1` [L1, 2,2′,2″-(10-benzyl-1,4,7,10-tetraazacyclododecane-1,4,7-triyl)triacetic Acid] the “average of the separation factor values Er/Ho” value ([1]; all Er/Ho mixtures) was 2.73, the “Separation factor Er/Ho” value ([1]; group A, 1st precipitation) was 2.30 and 2.59 and 2.55 and the “Supernatant concentration [mM] Ho” value ([1]; group A, 1st precipitation) was 0.44 mM and 0.40 mM and 0.46 mM. The “Precipitate concentration [mM] Ho” value ([1]; group A, 1st precipitation) was 4.72 mM and 4.31 mM and 4.29 mM, the “Precipitate concentration [mM] Ho” value [1, 5] was 4.44 mM and the “Supernatant concentration [mM] Ho” value [1, 5] was 0.43 mM. The “Separation factor Er/Ho” value ([1]; group B, 2nd precipitation) was 3.10 and 2.68 and 3.02, the “Supernatant concentration [mM] Ho” value ([1]; group B, 2nd precipitation) was 0.58 mM and 0.51 mM and 0.44 mM and the “Precipitate concentration [mM] Ho” value ([1]; group B, 2nd precipitation) was 4.07 mM and 4.24 mM and 4.20 mM. The “Precipitate concentration [mM] Ho” value ([1]; group B, 2nd precipitation, mean) was 4.17 mM, the “Separation factor Er/Ho” value ([1]; group C, 3rd precipitation) was 2.97 and 2.30 and 3.06 and the “Precipitate concentration [mM] Ho” value ([1]; group C, 3rd precipitation) was 3.23 mM and 2.65 mM. The “Precipitate concentration [mM] Ho” value ([1]; group C, 3rd precipitation, mean) was 3.04 mM.
For `O=C(O)CN1CCN(CC(=O)O)CCN(Cc2cccc3ccccc23)CCN(CC(=O)O)CC1` [L5, 2,2′,2″-(10-(naphthalene-1-ylmethyl)-1,4,7,10-tetraazacyklododekane-1,4,7-triyl)triacetic acid], the “Supernatant concentration [mM] Dy” value ([2]; A, 1st precipitation) was 1.41 mM and 1.47 mM and 1.59 mM, the “Supernatant concentration [mM] Tb” value ([2]; A, 1st precipitation, 5 mM α-HIBA) was 0.77 mM and 0.86 mM and the “Supernatant concentration [mM] Tb” value ([2]; A, 1st precipitation, 5 mM α-HIBA, mean) was 0.82 mM. The “Precipitate concentration [mM] Dy” value ([2]; A, 1st precipitation) was 3.02 mM and 2.88 mM and 2.92 mM, the “Precipitate concentration [mM] Dy” value ([2]; A, 1st precipitation, mean) was 2.94 mM and the “precipitate concentration [mm] Tb” value ([2]; A, 1st precipitation, mean) was 3.74 mM. The “Supernatant concentration [mM] Dy” value ([2]; A, 1st precipitation, mean) was 1.49 mM, the “Supernatant concentration [mM] Dy” value ([2]; B, 2nd precipitation) was 1.27 mM and 1.30 mM and 1.26 mM and the “Supernatant concentration [mM] Tb” value ([2]; B, 2nd precipitation) was 0.84 mM and 0.90 mM and 0.79 mM. For the same compound, the “Precipitate concentration [mM] Dy” value ([2]; B, 2nd precipitation) was 2.65 mM and 2.72 mM and 2.76 mM, the “Precipitate concentration [mM] Dy” value ([2]; B, 2nd precipitation, mean) was 2.71 mM and the “precipitate concentration [mm] Tb” value ([2]; B, 2nd precipitation, mean) was 4.16 mM. For the same compound, the “Supernatant concentration [mM] Dy” value ([2]; C, 3rd precipitation) was 1.10 mM and 1.20 mM and 1.08 mM, the “Supernatant concentration [mM] Tb” value ([2]; C, 3rd precipitation) was 0.90 mM and 0.98 mM and 0.83 mM and the “Precipitate concentration [mM] Dy” value ([2]; C, 3rd precipitation) was 2.52 mM and 2.42 mM and 2.72 mM. For the same compound, the “Precipitate concentration [mM] Dy” value ([2]; C, 3rd precipitation, mean) was 2.55 mM, the “precipitate concentration [mm] Tb” value ([2]; C, 3rd precipitation, mean) was 4.70 mM and the “Supernatant concentration [mM] Dy” value ([2]; C, 3rd precipitation, mean) was 1.13 mM. For the same compound, the “solution after 20 hrs” value ([3]; Ln=Dy) was 0.58 mM, the “precipitate after 20 hrs” value ([3]; Ln=Dy) was 4.69 mM and the “precipitate after 20 hrs composition” value ([3]; Ln=Dy) was 14.9%. For the same compound, the “solution after 20 hrs composition” value ([3]; Ln=Dy) was 17.1%, the “solution after 20 hrs” value ([3]; Ln=Nd) was 1.85 mM and the “precipitate after 20 hrs” value ([3]; Ln=Nd) was 16.68 mM. For the same compound, the “precipitate after 20 hrs composition” value ([3]; Ln=Nd) was 53.0%, the “solution after 20 hrs composition” value ([3]; Ln=Nd) was 54.3% and the “solution after 20 hrs” value ([3]; Ln=Pr) was 0.47 mM. For the same compound, the “precipitate after 20 hrs” value ([3]; Ln=Pr) was 4.85 mM, the “precipitate after 20 hrs composition” value ([3]; Ln=Pr) was 15.4% and the “solution after 20 hrs composition” value ([3]; Ln=Pr) was 13.9%. For the same compound, the “solution after 20 hrs” value ([3]; Ln=Tb) was 0.50 mM, the “precipitate after 20 hrs” value ([3]; Ln=Tb) was 5.28 mM and the “precipitate after 20 hrs composition” value ([3]; Ln=Tb) was 16.8%. The “solution after 20 hrs composition” value ([3]; Ln=Tb) was 14.7%, the “% of initial [chelate] in filtrate” value ([4]; additive acetate 76 mM) was 0.8% and the “% of initial [chelate] in filtrate” value ([4]; additive benzoic acid 76 mM) was 0.3%. The “% of initial [chelate] in filtrate” value ([4]; additive α-HIBA 30.4 mM) was 0.4%.

Source: patent US20230356105A1, “TETRAAZADODECANE BASED CHELATING AGENTS FOR SEPARATION OF RARE EARTH ELEMENTS AND METHOD THEREFOR” (Ustav Organicke Chemie a Biochemie AV CR V.V.I., priority 2020, published 2023)
